Columns and labels:
[1] = test system: Staphylococcus aureus X1.1; assay: MIC, standard agar-dilution assay; assay type: cell-based; conditions: Staphylococcus aureus X1.1; agar dilution
[2] = test system: Staphylococcus aureus V41; assay: MIC, standard agar-dilution assay; assay type: cell-based; conditions: Staphylococcus aureus V41, penicillin-resistant strain; agar dilution
[3] = test system: Staphylococcus aureus X400; assay: MIC, standard agar-dilution assay; assay type: cell-based; conditions: Staphylococcus aureus X400, methicillin-resistant strain
[4] = test system: Staphylococcus aureus S13E; assay type: cell-based; conditions: agar dilution
[5] = test system: Staphylococcus epidermidis EPI1; assay type: cell-based; conditions: Staphylococcus epidermidis EPI1; agar dilution
[6] = test system: Staphylococcus epidermidis EPI2; assay: MIC, standard agar-dilution assay; assay type: cell-based
[7] = test system: Streptococcus pyogenes C203; assay: MIC, standard agar-dilution assay; assay type: cell-based; conditions: Streptococcus pyogenes C203; agar dilution
[8] = test system: Streptococcus pneumoniae Park I; assay type: cell-based; conditions: agar dilution
[9] = test system: Streptococcus Group D X66; assay: MIC, standard agar-dilution assay; assay type: cell-based; conditions: Streptococcus Group D X66; agar dilution
Streptococcus Group 9960 = assay: MIC, standard agar-dilution assay; assay type: cell-based; conditions: Streptococcus Group 9960; agar dilution
[10] = test system: Haemophilus influenzae C.L.; assay: MIC, standard agar-dilution assay; assay type: cell-based; conditions: ampicillin-sensitive strain
[11] = test system: Haemophilus influenzae 76; assay: MIC, standard agar-dilution assay; assay type: cell-based; conditions: Haemophilus influenzae 76, ampicillin-resistant strain
Staphylococcus aureus = assay: ED50 in experimentally infected mice; assay type: in vivo; conditions: mice infected with Staphylococcus aureus; administered subcutaneously 1 and 4 hours postinfection
Streptococcus pneumoniae = assay: ED50 in experimentally infected mice; assay type: in vivo; conditions: mice infected with Streptococcus pneumoniae; administered subcutaneously 1 and 4 hours postinfection
Description: (§1) Some of the derivatives of this invention have shown in vivo antimicrobial activity against experimentally-induced infections in laboratory animals. When two doses of test compound were administered to experimentally infected mice, the activity observed was measured as an ED50 value [effective dose in mg/kg to protect 50% of the test animals: see Warren Wick, et al., J. Bacteriol. 81, 233-235 (1961)].
(§2) ^a mg/kg × 2; administered subcutaneously 1 and 4 hours

Streptococcus pyogenes = assay: ED50 in experimentally infected mice; assay type: in vivo; conditions: mice infected with Streptococcus pyogenes; administered subcutaneously 1 and 4 hours postinfection
Description: as §1, §2

Substance	MIC [1]	MIC [2]	MIC [3]	MIC [4]	MIC [5]	MIC [6]	MIC [7]	MIC [8]	MIC [9]	MIC (Streptococcus Group 9960)	MIC [10]	MIC [11]	ED50 (Staphylococcus aureus)	ED50 (Streptococcus pneumoniae)	ED50 (Streptococcus pyogenes)
N--(3,5-dichlorobenzoyl)A41030A [Example 22]	0.125 µg/mL	0.125 µg/mL	0.25 µg/mL	0.25 µg/mL	0.125 µg/mL	0.25 µg/mL	0.5 µg/mL	0.5 µg/mL	0.5 µg/mL	0.5 µg/mL	16 µg/mL	8 µg/mL	< 0.31 mg/kg × 2	41 mg/kg × 2	> 10 mg/kg × 2
N--(L-phenylalanyl)A41030A [Example 17]	0.125 µg/mL	0.125 µg/mL	0.125 µg/mL	0.125 µg/mL	0.125 µg/mL	0.125 µg/mL	0.125 µg/mL	0.125 µg/mL	0.5 µg/mL	0.125 µg/mL	8 µg/mL	16 µg/mL	0.08 mg/kg × 2	8.52 mg/kg × 2	> 10 mg/kg × 2
N--(lauroyl)A41030A [Example 20]	0.5 µg/mL	0.5 µg/mL	1 µg/mL	0.5 µg/mL	0.5 µg/mL	0.5 µg/mL	1 µg/mL	1 µg/mL	0.5 µg/mL	0.5 µg/mL	32 µg/mL	32 µg/mL	0.6 mg/kg × 2	> 10 mg/kg × 2	> 10 mg/kg × 2
N--(nonanoyl)A41030A [Example 19]	0.125 µg/mL	0.25 µg/mL	0.25 µg/mL	0.25 µg/mL	0.125 µg/mL	0.25 µg/mL	0.5 µg/mL	0.5 µg/mL	0.25 µg/mL	0.25 µg/mL	32 µg/mL	16 µg/mL	< 0.31 mg/kg × 2	> 10 mg/kg × 2	> 10 mg/kg × 2
N--(nonanoyl)A47934 [Example 25]	0.125 µg/mL	0.125 µg/mL	0.25 µg/mL	0.125 µg/mL	0.06 µg/mL	0.125 µg/mL	0.5 µg/mL	0.25 µg/mL	0.25 µg/mL	0.25 µg/mL	8 µg/mL	8 µg/mL	< 0.31 mg/kg × 2	> 10 mg/kg × 2	> 10 mg/kg × 2
N--[4-(N,N--dimethylamino)benzoyl]A41030A [Example 18]	0.25 µg/mL	0.5 µg/mL	0.5 µg/mL	0.25 µg/mL	0.25 µg/mL	0.5 µg/mL	1 µg/mL	0.5 µg/mL	1 µg/mL	2 µg/mL	-- (Compound not active at less than 128 mcg/ml)	64 µg/mL	0.46 mg/kg × 2	> 10 mg/kg × 2	> 10 mg/kg × 2
N--[p-(octyloxy)benzoyl]A41030A [Example 21]	1 µg/mL	1 µg/mL	2 µg/mL	2 µg/mL	0.5 µg/mL	1 µg/mL	2 µg/mL	2 µg/mL	2 µg/mL	1 µg/mL	-- (Compound not active at less than 128 mcg/ml)	-- (Compound not active at less than 128 mcg/ml)	2.19 mg/kg × 2	> 10 mg/kg × 2	> 10 mg/kg × 2
N--[p-(octyloxy)benzoyl]A47934 [Example 26]	0.125 µg/mL	0.25 µg/mL	0.5 µg/mL	0.25 µg/mL	0.125 µg/mL	0.5 µg/mL	0.5 µg/mL	0.5 µg/mL	0.5 µg/mL	1 µg/mL	8 µg/mL	4 µg/mL	3.6 mg/kg × 2	> 10 mg/kg × 2	> 10 mg/kg × 2

Reference: patent publication US4497802A, “N-Acyl glycopeptide derivatives” (Eli Lilly and Company, priority 1983, dated 1985)
